Laboratory results: patent US20150031643A1, “COMBINATION TREATMENT OF ACUTE MYELOID LEUKEMIA AND MYELODYSPLASTIC SYNDROME II” (Boehringer Ingelheim International GmbH, priority 2013, published 2015)

Tested on: human AML cell line MV4;11
Test: Nude mouse xenograft model derived from human AML cell line MV4;11: tumor growth
Format: in vivo, mice
Conditions: treated for 19 days
Method: MV4;11 (CRL-9591) cells were obtained from ATCC. According to the Catalogue of Somatic Mutations in Cancer of the Wellcome Trust Sanger Institute, UK, this cell line carries a mutation in the FLT3 gene. Cells were cultured in T175 tissue culture flasks at 37° C. and 5% CO2. The medium used was IMDM supplemented with 10% fetal calf serum, 1% NEAA, 1% sodium pyruvate and 1% glutamine.
To establish subcutaneous tumors, MV4;11 cells were harvested and resuspended in PBS+5% FCS at 5×10^7 cells/ml. 50 μl of the cell suspension containing 2.5×10^6 cells was then injected subcutaneously into the right flank of the mice (1 site per mouse). Growth factor reduced BD Matrigel™ Matrix (BD Biosciences) was added to the cell suspension at a ratio of 1:1 before the injection. When tumors were well established and had reached a tumor volume of ˜120 mm^3, mice were randomly distributed between the treatment and the vehicle control groups 14 days after injecting the cells.
The solution was freshly made up each injection day.
The application solution was prepared on each injection day.
Animals were treated for 19 days.

| SMILES | T/C (ratio of median tumor volume of treated vs. control tumors) (Example 1, Azacitidine alone 40 mg/kg once weekly i.v.) [%] | T/C (ratio of median tumor volume of treated vs. control tumors) (Example 2, Azacitidine alone 40 mg/kg once weekly i.v.) [%] | T/C (ratio of median tumor volume of treated vs. control tumors) (Example 1, Volasertib alone 10 mg/kg once weekly i.v.) [%] | T/C (ratio of median tumor volume of treated vs. control tumors) (Example 2, Volasertib alone 20 mg/kg once weekly i.v.) [%] |
| --- | --- | --- | --- | --- |
| Nc1ncn([C@@H]2O[C@H](CO)[C@@H](O)[C@H]2O)c(=O)n1 [azacitidine, Azacitidine] | 78 | 78 |  |  |
| CC[C@@H]1C(=O)N(C)c2cnc(Nc3ccc(C(=O)N[C@H]4CC[C@H](N5CCN(CC6CC6)CC5)CC4)cc3OC)nc2N1C(C)C [Volasertib, N-[trans-4-[4-(cyclopropylmethyl)-1-piperazinyl]cyclohexyl]-4-[[(7R)-7-ethyl-5,6,7,8-tetrahydro-5-methyl-8-(1-methylethyl)-6-oxo-2-pteridinyl]amino]-3-methoxy-benzamide] |  |  | 79 | 39 |
